From patent US4740601A, “Imidazole derivatives having antimicrobial activities” (SS Pharmaceutical Co., Ltd., priority 1985, dated 1988)
In brackets after ≈: the same amount, converted by molar mass. Where two headings read alike, the source gives them in different places.

Columns and labels:
Assay type in all cases: cell-based
[1] = tested on: Staphylococcus aureus Smith; assay: antimicrobial activity, MIC; details: Staphylococcus aureus, read-out: MIC
[2] = tested on: Trichophyton mentagrophytes IFO 5812; assay: antimicrobial activity, MIC
[3] = tested on: Candida albicans NHL 4019; assay: antimicrobial activity, MIC; details: Candida albicans, NHL4019, Candida albicans NHL 4019; read-out: MIC
[4] = tested on: Staphylococcus aureus FDA 209P; assay: antimicrobial activity, MIC; details: Staphylococcus aureus, FDA209P, read-out: MIC
[5] = tested on: Aspergillus niger ATCC 9642; assay: antimicrobial activity, MIC
[6] = tested on: Pyricularia oryzae IAM 5016; assay: microbe, parasite or virus in culture
[7] = tested on: Streptococcus faecalis IFO 12964; assay: antimicrobial activity, MIC; details: Enterococcus faecalis, IFO12964, Streptococcus faecalis IFO 12964; read-out: MIC
[8] = tested on: Staphylococcus epidermidis ATCC 12228; assay: antimicrobial activity, MIC; details: Staphylococcus epidermidis, ATCC12228, Staphylococcus epidermidis ATCC 12228; read-out: MIC
[9] = tested on: Microsporum audounii IFO 6074; assay: antimicrobial activity, MIC
[10] = tested on: Trichophyton rubrum NHL J; assay: antimicrobial activity, MIC; details: Trichophyton rubrum NHL J
[11] = tested on: Candida albicans Yu-1200; assay: antimicrobial activity, MIC; details: YU1200, read-out: MIC
[12] = tested on: Aspergillus oryzae IMF 4014; assay: antimicrobial activity, MIC
[13] = tested on: Saccharomyces cerevisiae ATCC 9763; assay: antimicrobial activity, MIC; details: Saccharomyces cerevisiae, ATCC9763, Saccharomyces cerevisiae ATCC 9763; read-out: MIC
[14] = tested on: Epidermophyton floccosum IFO 9045; assay: antimicrobial activity, MIC
[15] = tested on: Saccharomyces ruxii 6507; assay: antimicrobial activity, MIC
[16] = tested on: Staphylococcus aureus Terajima; assay: antimicrobial activity, MIC; details: Staphylococcus aureus, read-out: MIC
[17] = tested on: Trichophyton tonsurans IFO 5928; assay: antimicrobial activity, MIC
[18] = tested on: Fusarium moniliforme IAM 5062; assay: antimicrobial activity, MIC; details: Fusarium verticillioides, IAM5062, Fusarium moniliforme IAM 5062; read-out: MIC
[19] = tested on: Microsporum gypseum IFO 8231; assay: antimicrobial activity, MIC; details: Nannizzia gypsea, IFO8231, Microsporum gypseum IFO 8231; read-out: MIC
[20] = tested on: Cladosporium fulvum IAM 5006; assay: antimicrobial activity, MIC; details: Fulvia fulva, IAM5006, Cladosporium fulvum IAM 5006; read-out: MIC
[21] = tested on: Penicillium chrysogenum ATCC 6010; assay: antimicrobial activity, MIC
[22] = tested on: Bacillus subtilis ATCC 6633; assay: antimicrobial activity, MIC
[23] = tested on: Sarcina lutea ATCC 9341; assay: antimicrobial activity, MIC
[24] = tested on: Micrococcus lysodeixticus IFO 3333; assay: antimicrobial activity, MIC; details: Micrococcus
[25] = tested on: Microsporum cookei IFO 8303; assay: antimicrobial activity, MIC
[26] = tested on: Helminthosporium sesamum IAM 5012; assay: antimicrobial activity, MIC
[27] = tested on: Gibberella fujikuroi IAM 8046; assay: antimicrobial activity, MIC
[28] = tested on: Trichophyton mentagrophytes QM 248; assay: antimicrobial activity, MIC
[29] = tested on: Debaryomyces kloeckeri IFO 0015; assay: antimicrobial activity, MIC; details: IFO0015, read-out: MIC
[30] = Trichophyton mentagrophytes, IFO5812, Trichophyton mentagrophytes IFO 5812, read-out: MIC
[31] = Aspergillus niger, ATCC9642, Aspergillus niger ATCC 9642, read-out: MIC
[32] = Pyricularia oryzae, IAM5016, Pyricularia oryzae IAM 5016
[33] = Microsporum, IFO6074, Microsporum audounii IFO 6074, read-out: MIC
[34] = Trichophyton rubrum, read-out: MIC
[35] = Aspergillus oryzae, IMF4014, Aspergillus oryzae IMF 4014, read-out: MIC
[36] = Epidermophyton floccosum, IFO9045, Epidermophyton floccosum IFO 9045, read-out: MIC
[37] = Saccharomyces ruxii 6507, read-out: MIC
[38] = Trichophyton tonsurans, IFO5928, Trichophyton tonsurans IFO 5928, read-out: MIC
[39] = Penicillium chrysogenum, ATCC6010, Penicillium chrysogenum ATCC 6010, read-out: MIC
[40] = Bacillus subtilis, ATCC6633, Bacillus subtilis ATCC 6633, read-out: MIC
[41] = Micrococcus luteus, ATCC9341, Sarcina lutea ATCC 9341, read-out: MIC
[42] = IFO3333, Micrococcus lysodeixticus IFO 3333, read-out: MIC
[43] = Paraphyton cookei, IFO8303, Microsporum cookei IFO 8303, read-out: MIC
[44] = Helminthosporium, IAM5012, Helminthosporium sesamum IAM 5012, read-out: MIC
[45] = Fusarium fujikuroi, IAM8046, Gibberella fujikuroi IAM 8046, read-out: MIC
[46] = Trichophyton mentagrophytes, QM248, Trichophyton mentagrophytes QM 248, read-out: MIC

SMILES	MIC [1]	MIC [2, 30]	MIC [3]	MIC [4]	MIC [5, 31]	MIC [6, 32]	MIC [7]	MIC [8]	MIC [9, 33]	MIC [10, 34]	MIC [11]	MIC [12, 35]	MIC [13]	MIC [14, 36]	MIC [15, 37]	MIC [16]	MIC [18]	MIC [19]	MIC [20]	MIC [29]	other results
CCCCSC=C(c1ccccc1OCCC)n1ccnc1 (single isomer, unassigned) [Compound 46]	12.5 µg/mL (≈ 39.5 µM)	< 0.2 µg/mL	25 µg/mL (≈ 79 µM)	12.5 µg/mL (≈ 39.5 µM)	1.56 µg/mL (≈ 4.93 µM)	< 0.2 µg/mL	12.5 µg/mL (≈ 39.5 µM)	6.25 µg/mL (≈ 19.7 µM)	< 0.2 µg/mL	< 0.2 µg/mL	50 µg/mL (≈ 158 µM)	0.78 µg/mL (≈ 2.46 µM)	< 0.2 µg/mL	1.56 µg/mL (≈ 4.93 µM)	0.78 µg/mL (≈ 2.46 µM)	12.5 µg/mL (≈ 39.5 µM)	1.56 µg/mL (≈ 4.93 µM)	< 0.2 µg/mL	12.5 µg/mL (≈ 39.5 µM)	12.5 µg/mL (≈ 39.5 µM)	MIC [17, 38]: < 0.2 µg/mL; MIC [21, 39]: 1.56 µg/mL (≈ 4.93 µM); MIC [22, 40]: 6.25 µg/mL (≈ 19.7 µM); MIC [23, 41]: 6.25 µg/mL (≈ 19.7 µM); MIC [24, 42]: 3.12 µg/mL (≈ 9.86 µM); MIC [25, 43]: 1.56 µg/mL (≈ 4.93 µM); MIC [26, 44]: 1.56 µg/mL (≈ 4.93 µM); MIC [27, 45]: 0.39 µg/mL (≈ 1.23 µM); MIC [28, 46]: < 0.2 µg/mL
CCCCCSC=C(c1ccccc1OCC)n1ccnc1 (single isomer, unassigned) [Compound 49]	12.5 µg/mL (≈ 39.5 µM)	< 0.2 µg/mL	25 µg/mL (≈ 79 µM)	12.5 µg/mL (≈ 39.5 µM)	< 0.2 µg/mL	< 0.2 µg/mL	6.25 µg/mL (≈ 19.7 µM)	3.12 µg/mL (≈ 9.86 µM)	< 0.2 µg/mL	< 0.2 µg/mL	25 µg/mL (≈ 79 µM)	0.78 µg/mL (≈ 2.46 µM)	50 µg/mL (≈ 158 µM)	0.78 µg/mL (≈ 2.46 µM)	< 0.2 µg/mL	6.25 µg/mL (≈ 19.7 µM)	1.56 µg/mL (≈ 4.93 µM)	< 0.2 µg/mL	25 µg/mL (≈ 79 µM)	12.5 µg/mL (≈ 39.5 µM)	MIC [17, 38]: < 0.2 µg/mL; MIC [21, 39]: 6.25 µg/mL (≈ 19.7 µM); MIC [22, 40]: 3.12 µg/mL (≈ 9.86 µM); MIC [23, 41]: 3.12 µg/mL (≈ 9.86 µM); MIC [24, 42]: 1.56 µg/mL (≈ 4.93 µM); MIC [25, 43]: 1.56 µg/mL (≈ 4.93 µM); MIC [26, 44]: 0.39 µg/mL (≈ 1.23 µM); MIC [27, 45]: 0.39 µg/mL (≈ 1.23 µM); MIC [28, 46]: < 0.2 µg/mL
CCCOc1ccccc1C(=CSc1ccccc1)n1ccnc1 (single isomer, unassigned) [Compound 64]	12.5 µg/mL (≈ 37.2 µM)	–	> 100 µg/mL	25 µg/mL (≈ 74.3 µM)	–	–	25 µg/mL (≈ 74.3 µM)	6.25 µg/mL (≈ 18.6 µM)	–	–	> 100 µg/mL	–	50 µg/mL (≈ 149 µM)	–	–	6.25 µg/mL (≈ 18.6 µM)	50 µg/mL (≈ 149 µM)	6.25 µg/mL (≈ 18.6 µM)	> 100 µg/mL	> 100 µg/mL	MIC ([2]; Trichophyton mentagrophytes IFO 5812): < 0.2 µg/mL; MIC ([5]; Aspergillus niger ATCC 9642): 12.5 µg/mL (≈ 37.2 µM); MIC ([6]; Pyricularia oryzae IAM 5016): < 0.2 µg/mL; MIC ([9]; Microsporum audounii IFO 6074): < 0.2 µg/mL; MIC [10]: < 0.2 µg/mL; MIC ([12]; Aspergillus oryzae IMF 4014): 6.25 µg/mL (≈ 18.6 µM); MIC ([14]; Epidermophyton floccosum IFO 9045): 6.25 µg/mL (≈ 18.6 µM); MIC ([15]; Saccharomyces, 6507, Saccharomyces ruxii 6507): 1.56 µg/mL (≈ 4.64 µM); MIC ([17]; Trichophyton tonsurans IFO 5928): 3.12 µg/mL (≈ 9.27 µM); MIC ([21]; Penicillium chrysogenum ATCC 6010): 12.5 µg/mL (≈ 37.2 µM); MIC ([22]; Bacillus subtilis ATCC 6633): 6.25 µg/mL (≈ 18.6 µM); MIC ([23]; Sarcina lutea ATCC 9341): 6.25 µg/mL (≈ 18.6 µM); MIC ([24]; IFO3333): 1.56 µg/mL (≈ 4.64 µM); MIC ([25]; Microsporum cookei IFO 8303): 12.5 µg/mL (≈ 37.2 µM); MIC ([26]; Helminthosporium sesamum IAM 5012): 6.25 µg/mL (≈ 18.6 µM); MIC ([27]; Gibberella fujikuroi IAM 8046): 25 µg/mL (≈ 74.3 µM); MIC ([28]; Trichophyton mentagrophytes QM 248): 0.78 µg/mL (≈ 2.32 µM)
